Measured values published in US8772303B2, “Pharmaceutical formulation” (Glaxo Group Limited, priority 2004, dated 2014).

What was measured:
[1] = Measurement of the substituted uracil formula (II) in simulated gastric fluid (hydrolysis of active); assay type: physicochemical; settings: for Levels of Formula (II) in simulated gastric fluid: 60 mg active in 250 mL SGF, 37° C., 50 rpm
Text: Compounds of Formula (I) hydrolyse, particularly under conditions where pH corresponds to that typically prevailing in the human stomach, to form a thiol and a uracil in a 1:1 stoichiometric ratio. The thiol has a smell characteristic of compounds of its class, the intensity of the smell increasing with the concentration of the thiol. Thus the concentration of the uracil is a surrogate marker for the intensity of the smell.
To simulate in vitro the effect of enteric-coating on the propensity of 1-(N-(2-(Diethylamino)ethyl)-N-(4-(4-trifluoromethylphenyl)benzyl)aminocarbonylmethyl)-2-(4-fluorobenzyl)thio-5,6-trimethylenepyrimidin-4-one as the free base (called “active” in this example) to give rise to abnormal smells in vivo, a two-armed study was performed. In both arms, 60 mg of active was immersed in 250 mL simulated gastric fluid held at 37° C. and stirred at 50 rpm in a USP2 dissolution apparatus. In one arm, the active was present as an enteric-coated tablet. In the other arm, active was present as the unformulated drug substance, which is chemically equivalent to a tablet lacking an enteric coat.
The uracil produced by the active is N-[2-(diethylamino)ethyl]-2-(2,4-dioxo-2,3,4,5,6,7-hexahydro-1H-cyclopenta[d]pyrimidin-1-yl)-N-{[4′-(trifluoromethyl)-4-biphenylyl]methyl}acetamide, as shown in Formula (II): […]
In both arms, the level of formula (II) in solution was monitored over time, by withdrawing a small sample of the fluid and comparing its LC-MS response to that of a matrix-matched external standard (i.e. synthetic formula (II)).

[2] = Measurement of the substituted uracil formula (II) in simulated intestinal fluid (hydrolysis of active); assay type: physicochemical; settings: for Levels of formula (II) in simulated intestinal fluid: 80 mg active in 250 mL fasted-state SIF, 37° C., 50 rpm
Experimental: To simulate in vitro the propensity of active tablets to give rise to abnormal smells in the human intestine, active equivalent to 80 mg was immersed in 250 mL simulated intestinal fluid (corresponding to the fasted state in humans) held at 37° C. and stirred at 50 rpm in a USP2 dissolution apparatus. This is chemically equivalent to a tablet whose enteric coat has been destroyed and whose core has subsequently disintegrated.
The level of formula (II) in solution was monitored over time, by withdrawing a small sample of the fluid and comparing its LC-MS response to that of a matrix-matched external standard (i.e. synthetic formula (II)).

Levels of Formula (II) in simulated gastric fluid ([1]; 0 min, QL 1.71 ng/mL): 6270 ng/mL
Levels of Formula (II) in simulated gastric fluid ([1]; 5 min, QL 1.71 ng/mL): 6570 ng/mL
Levels of Formula (II) in simulated gastric fluid ([1]; 10 min, QL 1.71 ng/mL): 7180 ng/mL
Levels of Formula (II) in simulated gastric fluid ([1]; 15 min, QL 1.71 ng/mL): 7970 ng/mL
Levels of Formula (II) in simulated gastric fluid ([1]; 30 min, QL 1.71 ng/mL): 9270 ng/mL
Levels of Formula (II) in simulated gastric fluid ([1]; 45 min, QL 1.71 ng/mL): 11450 ng/mL
Levels of Formula (II) in simulated gastric fluid ([1]; 60 min): 13110 ng/mL
Levels of Formula (II) in simulated gastric fluid ([1]; 120 min): 18940 ng/mL
Levels of Formula (II) in simulated gastric fluid ([1]; 240 min): 25250 ng/mL
Levels of Formula (II) in simulated gastric fluid ([1]; 480 min): 62910 ng/mL
Levels of Formula (II) in simulated gastric fluid ([1]; 1440 min): 135600 ng/mL
Reduction by the enteric coat of the level of formula (II) formed by active ([1]; simulated gastric fluid, enteric coated tablet versus unformulated drug): 4 orders of magnitude
Levels of formula (II) in simulated intestinal fluid ([2]; 480 min): 2.99 ng/mL
Levels of formula (II) in simulated intestinal fluid ([2]; 1440 min): 8.58 ng/mL
Propensity to form formula (II) in simulated intestinal fluid ([2]; in contrast to behaviour in simulated gastric fluid): low propensity
Structure (SMILES): CCN(CC)CCN(Cc1ccc(-c2ccc(C(F)(F)F)cc2)cc1)C(=O)Cn1c(SCc2ccc(F)cc2)nc(=O)c2c1CCC2 [Unformulated drug, 1-(N-(2-(Diethylamino)ethyl)-N-(4-(4-trifluoromethylphenyl)benzyl)aminocarbonylmethyl)-2-(4-fluorobenzyl)thio-5,6-trimethylenepyrimidin-4-one]
